Numbers after ± are expanded uncertainties.
Key:
[1] = xn = mol fraction of the nth substance listed; details: 101 kPa, Liquid; for speed of sound: 298.15 K, Ecolab MPFU speed of sound meter; for mass density: Vibrating tube method
[2] = molar heat capacity at constant pressure; xn = mol fraction of the nth substance listed; details: 298.15 K, 101 kPa, Liquid, Flow calorimetry

For COCCO [2-methoxyethan-1-ol] + CC#N, the speed of sound ([1]; x1 = 0.09833) was 1281.3 ± 2 m/s, the speed of sound ([1]; x1 = 0.1936) was 1285.5 ± 2 m/s and the speed of sound ([1]; x1 = 0.2999) was 1292.4 ± 2 m/s. It also gave a speed of sound ([1]; x1 = 0.3989) of 1300.3 ± 2 m/s, a speed of sound ([1]; x1 = 0.5042) of 1309.5 ± 2 m/s and a speed of sound ([1]; x1 = 0.605) of 1318.2 ± 2 m/s. It also gave a speed of sound ([1]; x1 = 0.7347) of 1328.4 ± 2 m/s, a speed of sound ([1]; x1 = 0.8295) of 1334.3 ± 2 m/s and a speed of sound ([1]; x1 = 0.9177) of 1338.1 ± 2 m/s. The speed of sound ([1]; x1 = 1) was 1339.7 ± 2 m/s, the mass density ([1]; 308.15 K, x1 = 0.00998) was 768.618 ± 0.14 kg/m3 and the mass density ([1]; 308.15 K, x1 = 0.02137) was 771.87 ± 0.14 kg/m3. The mass density ([1]; 308.15 K, x1 = 0.03278) was 775.071 ± 0.14 kg/m3, the mass density ([1]; 308.15 K, x1 = 0.04058) was 777.238 ± 0.14 kg/m3 and the mass density ([1]; 308.15 K, x1 = 0.0505) was 779.979 ± 0.14 kg/m3. For the same molecule, the mass density ([1]; 308.15 K, x1 = 0.06827) was 784.813 ± 0.14 kg/m3, the mass density ([1]; 308.15 K, x1 = 0.07039) was 785.413 ± 0.14 kg/m3 and the mass density ([1]; 308.15 K, x1 = 0.07541) was 786.728 ± 0.14 kg/m3. It also gave a mass density ([1]; 308.15 K, x1 = 0.09332) of 791.503 ± 0.13 kg/m3, a mass density ([1]; 308.15 K, x1 = 0.1019) of 793.744 ± 0.13 kg/m3 and a mass density ([1]; 308.15 K, x1 = 0.1512) of 806.368 ± 0.13 kg/m3. It also gave a mass density ([1]; 308.15 K, x1 = 0.195) of 817.055 ± 0.12 kg/m3, a mass density ([1]; 308.15 K, x1 = 0.2495) of 829.827 ± 0.12 kg/m3 and a mass density ([1]; 308.15 K, x1 = 0.2981) of 840.655 ± 0.11 kg/m3. The mass density ([1]; 308.15 K, x1 = 0.4001) was 861.695 ± 0.1 kg/m3, the mass density ([1]; 308.15 K, x1 = 0.5006) was 880.458 ± 0.095 kg/m3 and the mass density ([1]; 308.15 K, x1 = 0.6017) was 897.597 ± 0.088 kg/m3. For the same molecule, the mass density ([1]; 308.15 K, x1 = 0.7041) was 913.484 ± 0.081 kg/m3, the mass density ([1]; 308.15 K, x1 = 0.8024) was 927.171 ± 0.075 kg/m3 and the mass density ([1]; 308.15 K, x1 = 0.9066) was 940.325 ± 0.072 kg/m3. For the same molecule, the mass density ([1]; 308.15 K, x1 = 0.9102) was 940.846 ± 0.07 kg/m3, the mass density ([1]; 308.15 K, x1 = 0.9213) was 942.098 ± 0.07 kg/m3 and the mass density ([1]; 308.15 K, x1 = 0.9316) was 943.319 ± 0.069 kg/m3. The mass density ([1]; 308.15 K, x1 = 0.9417) was 944.49 ± 0.069 kg/m3, the mass density ([1]; 308.15 K, x1 = 0.9528) was 945.766 ± 0.068 kg/m3 and the mass density ([1]; 308.15 K, x1 = 0.9632) was 946.944 ± 0.068 kg/m3. The mass density ([1]; 308.15 K, x1 = 0.9702) was 947.731 ± 0.068 kg/m3, the mass density ([1]; 308.15 K, x1 = 0.9814) was 948.974 ± 0.067 kg/m3 and the mass density ([1]; 308.15 K, x1 = 0.9931) was 950.261 ± 0.067 kg/m3. It also gave a mass density ([1]; 308.15 K, x1 = 1) of 951.01 ± 0.063 kg/m3, a mass density ([1]; 318.15 K, x1 = 0.00977) of 758.593 ± 0.15 kg/m3 and a mass density ([1]; 318.15 K, x1 = 0.02023) of 761.593 ± 0.15 kg/m3. The mass density ([1]; 318.15 K, x1 = 0.0304) was 764.483 ± 0.14 kg/m3, the mass density ([1]; 318.15 K, x1 = 0.04029) was 767.262 ± 0.14 kg/m3 and the mass density ([1]; 318.15 K, x1 = 0.04893) was 769.671 ± 0.14 kg/m3. The mass density ([1]; 318.15 K, x1 = 0.05932) was 772.54 ± 0.14 kg/m3, the mass density ([1]; 318.15 K, x1 = 0.06681) was 774.593 ± 0.14 kg/m3 and the mass density ([1]; 318.15 K, x1 = 0.07969) was 778.086 ± 0.14 kg/m3. It also gave a mass density ([1]; 318.15 K, x1 = 0.091) of 781.124 ± 0.14 kg/m3, a mass density ([1]; 318.15 K, x1 = 0.1015) of 783.904 ± 0.14 kg/m3 and a mass density ([1]; 318.15 K, x1 = 0.1516) of 796.793 ± 0.13 kg/m3. For the same molecule, the mass density ([1]; 318.15 K, x1 = 0.195) was 807.486 ± 0.13 kg/m3, the mass density ([1]; 318.15 K, x1 = 0.2503) was 820.48 ± 0.12 kg/m3 and the mass density ([1]; 318.15 K, x1 = 0.304) was 832.469 ± 0.12 kg/m3. It also gave a mass density ([1]; 318.15 K, x1 = 0.4012) of 852.641 ± 0.11 kg/m3, a mass density ([1]; 318.15 K, x1 = 0.5007) of 871.365 ± 0.1 kg/m3 and a mass density ([1]; 318.15 K, x1 = 0.6038) of 888.921 ± 0.092 kg/m3. The mass density ([1]; 318.15 K, x1 = 0.7031) was 904.33 ± 0.086 kg/m3, the mass density ([1]; 318.15 K, x1 = 0.8014) was 918.191 ± 0.08 kg/m3 and the mass density ([1]; 318.15 K, x1 = 0.9034) was 931.153 ± 0.074 kg/m3. The mass density ([1]; 318.15 K, x1 = 0.9133) was 932.346 ± 0.073 kg/m3, the mass density ([1]; 318.15 K, x1 = 0.9235) was 933.569 ± 0.073 kg/m3 and the mass density ([1]; 318.15 K, x1 = 0.935) was 934.916 ± 0.072 kg/m3. It also gave a mass density ([1]; 318.15 K, x1 = 0.9434) of 935.911 ± 0.072 kg/m3, a mass density ([1]; 318.15 K, x1 = 0.9524) of 936.96 ± 0.071 kg/m3 and a mass density ([1]; 318.15 K, x1 = 0.9635) of 938.217 ± 0.071 kg/m3. It also gave a mass density ([1]; 318.15 K, x1 = 0.9723) of 939.208 ± 0.07 kg/m3, a mass density ([1]; 318.15 K, x1 = 0.9814) of 940.219 ± 0.07 kg/m3 and a mass density ([1]; 318.15 K, x1 = 0.9929) of 941.484 ± 0.069 kg/m3. For the same molecule, the mass density ([1]; 318.15 K, x1 = 1) was 942.253 ± 0.065 kg/m3, the “molar heat capacity at constant pressure” value ([2]; x1 = 0.0504) was 97.12 ± 0.6 J/K/mol and the “molar heat capacity at constant pressure” value ([2]; x1 = 0.1006) was 101.84 ± 0.63 J/K/mol. The “molar heat capacity at constant pressure” value ([2]; x1 = 0.1504) was 106.53 ± 0.66 J/K/mol, the “molar heat capacity at constant pressure” value ([2]; x1 = 0.1641) was 107.81 ± 0.67 J/K/mol and the “molar heat capacity at constant pressure” value ([2]; x1 = 0.1955) was 110.77 ± 0.68 J/K/mol. The “molar heat capacity at constant pressure” value ([2]; x1 = 0.2) was 111.19 ± 0.69 J/K/mol, the “molar heat capacity at constant pressure” value ([2]; x1 = 0.3003) was 120.53 ± 0.74 J/K/mol and the “molar heat capacity at constant pressure” value ([2]; x1 = 0.4043) was 129.87 ± 0.8 J/K/mol. The “molar heat capacity at constant pressure” value ([2]; x1 = 0.45) was 133.82 ± 0.83 J/K/mol, the “molar heat capacity at constant pressure” value ([2]; x1 = 0.5007) was 138.04 ± 0.85 J/K/mol and the “molar heat capacity at constant pressure” value ([2]; x1 = 0.6021) was 146.04 ± 0.9 J/K/mol. For the same molecule, the “molar heat capacity at constant pressure” value ([2]; x1 = 0.6287) was 148.03 ± 0.91 J/K/mol, the “molar heat capacity at constant pressure” value ([2]; x1 = 0.6497) was 149.58 ± 0.92 J/K/mol and the “molar heat capacity at constant pressure” value ([2]; x1 = 0.7453) was 156.4 ± 0.97 J/K/mol. The “molar heat capacity at constant pressure” value ([2]; x1 = 0.7493) was 156.67 ± 0.97 J/K/mol, the “molar heat capacity at constant pressure” value ([2]; x1 = 0.9064) was 167.3 ± 1 J/K/mol and the “molar heat capacity at constant pressure” value ([2]; x1 = 0.9498) was 170.12 ± 1.1 J/K/mol. For the same molecule, the “molar heat capacity at constant pressure” value ([2]; x1 = 1) was 173.25 ± 1.1 J/K/mol.
